What all share (assay): Cysteine liganding, probe competition
What all share (type): binding

Test [1] addresses T1, BIRC3 Baculoviral IAP repeat-containing protein 3 (Homo sapiens, UniProt Q13489).
T1 construct: Cells were resuspended in cold PBS on ice and sonicated with a probe sonicator to achieve lysis; endogenous in cells
In outline: (§1)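 Steps: sonicate cells in cold PBS; treat 5 mg/ml lysate with compound (25° C, 1 hr); add desthiobiotin iodoacetamide probe from a 10 mM stock (25° C, 1 hr); precipitate, reduce, alkylate, digest with trypsin; capture labelled peptides on streptavidin for analysis.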

The target in test [2] is T2, SEC63 Translocation protein SEC63 homolog (Homo sapiens, UniProt Q9UGP8).
T2 construct: Cells were resuspended in cold PBS on ice and sonicated with a probe sonicator to achieve lysis; endogenous in cells
T2 sequence (Q9UGP8 1-760): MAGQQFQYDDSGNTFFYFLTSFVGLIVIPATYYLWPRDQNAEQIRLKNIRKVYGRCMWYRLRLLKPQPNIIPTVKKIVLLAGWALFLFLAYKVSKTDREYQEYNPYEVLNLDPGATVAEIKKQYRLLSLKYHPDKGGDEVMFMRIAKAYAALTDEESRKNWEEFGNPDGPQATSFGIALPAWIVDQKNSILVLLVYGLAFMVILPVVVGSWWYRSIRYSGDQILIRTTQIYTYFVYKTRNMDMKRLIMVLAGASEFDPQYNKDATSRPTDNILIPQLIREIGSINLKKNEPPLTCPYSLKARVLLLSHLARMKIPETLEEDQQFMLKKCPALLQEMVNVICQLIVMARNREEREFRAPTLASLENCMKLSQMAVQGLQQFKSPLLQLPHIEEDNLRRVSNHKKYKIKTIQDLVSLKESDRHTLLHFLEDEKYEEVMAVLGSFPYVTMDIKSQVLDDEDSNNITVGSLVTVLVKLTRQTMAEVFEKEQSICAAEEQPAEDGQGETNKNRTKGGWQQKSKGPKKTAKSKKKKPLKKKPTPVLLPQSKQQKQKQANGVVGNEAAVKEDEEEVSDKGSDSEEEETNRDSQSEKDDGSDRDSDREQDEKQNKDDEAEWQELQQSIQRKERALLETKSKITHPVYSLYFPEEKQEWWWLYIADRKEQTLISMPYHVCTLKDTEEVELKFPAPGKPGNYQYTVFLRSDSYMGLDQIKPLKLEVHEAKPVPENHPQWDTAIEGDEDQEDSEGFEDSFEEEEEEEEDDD
The gist of the method:
as §1

The target in test [3] is T3, UNC93B1 Protein unc-93 homolog B1 (Homo sapiens, UniProt Q9H1C4).
T3 construct: Cells were resuspended in cold PBS on ice and sonicated with a probe sonicator to achieve lysis; endogenous in cells
T3 sequence (Q9H1C4 1-597): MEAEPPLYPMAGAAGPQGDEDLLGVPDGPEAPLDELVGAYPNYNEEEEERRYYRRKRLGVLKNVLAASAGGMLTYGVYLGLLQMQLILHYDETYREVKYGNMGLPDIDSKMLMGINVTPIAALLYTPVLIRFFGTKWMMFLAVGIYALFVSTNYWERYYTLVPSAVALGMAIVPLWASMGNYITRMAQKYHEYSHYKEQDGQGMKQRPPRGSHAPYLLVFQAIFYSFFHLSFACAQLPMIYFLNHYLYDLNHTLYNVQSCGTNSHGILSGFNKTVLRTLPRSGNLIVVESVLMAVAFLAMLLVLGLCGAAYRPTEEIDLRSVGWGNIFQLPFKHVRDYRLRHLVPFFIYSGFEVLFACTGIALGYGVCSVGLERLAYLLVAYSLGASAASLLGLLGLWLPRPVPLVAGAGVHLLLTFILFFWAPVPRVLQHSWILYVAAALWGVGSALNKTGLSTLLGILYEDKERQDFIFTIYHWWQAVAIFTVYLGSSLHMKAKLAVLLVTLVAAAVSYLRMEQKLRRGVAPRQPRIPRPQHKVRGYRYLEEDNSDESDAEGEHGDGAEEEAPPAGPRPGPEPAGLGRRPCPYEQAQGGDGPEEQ
The gist of the method: as §1

T1 sequence (Q13489 whole entry): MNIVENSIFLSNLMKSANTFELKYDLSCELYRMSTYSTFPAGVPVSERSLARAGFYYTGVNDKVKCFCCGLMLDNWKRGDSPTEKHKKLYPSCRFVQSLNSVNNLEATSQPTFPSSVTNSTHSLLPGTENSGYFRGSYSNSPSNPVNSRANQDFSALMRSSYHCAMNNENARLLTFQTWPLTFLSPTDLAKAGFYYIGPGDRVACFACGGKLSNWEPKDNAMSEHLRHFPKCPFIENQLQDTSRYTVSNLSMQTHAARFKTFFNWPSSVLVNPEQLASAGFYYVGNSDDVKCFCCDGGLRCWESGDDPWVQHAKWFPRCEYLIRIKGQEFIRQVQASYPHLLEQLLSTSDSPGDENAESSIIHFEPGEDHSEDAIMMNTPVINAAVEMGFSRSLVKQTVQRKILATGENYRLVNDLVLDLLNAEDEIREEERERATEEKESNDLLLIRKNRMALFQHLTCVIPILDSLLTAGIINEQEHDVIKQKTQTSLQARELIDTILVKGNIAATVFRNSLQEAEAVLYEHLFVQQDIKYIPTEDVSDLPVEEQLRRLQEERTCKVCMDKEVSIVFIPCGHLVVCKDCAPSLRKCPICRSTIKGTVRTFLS

`COc1ccc2c(c1)CCCN2C(=O)CCl` [KB02]: the Liganded result is recorded as “YES” in test [1] (BIRC3 Res# 28, uniprot Q13489); “YES” in test [2] (SEC63 Res# 295, uniprot Q9UGP8); “YES” in test [3] (UNC93B1 Res# 583, uniprot Q9H1C4).

For the compound `O=C(CCl)Nc1cc(C(F)(F)F)cc(C(F)(F)F)c1` [KBO3], in test [1] (uniprot Q13489), the “100 Max” value was 1.3, the 100 ave is on record as −2.6, the “500 Max” value was found to be 18.7 and the 500 ave was 18.7. Moreover, in test [2] (uniprot Q9UGP8), the “100 Max” value was 17.92, the 100 ave is on record as 4.99, the “500 Max” value stood at 55.53 and the 500 ave stood at 48.96. Besides, in test [3] (uniprot Q9H1C4), the “100 Max” value is 29.9385, the 100 ave was 13 and the 500 ave was 70.38. Further, the “500 Max” value in test [3] (uniprot Q9H1C4, in % (unit assumed)) is reported as 72.3195.
